{
  "source": "patent US20130317096A1",
  "about": "“SYNERGISTIC INTERACTION OF AT LEAST ONE VITAMIN E COMPONENT AND TYROSINASE INHIBITORS FOR DERMATOLOGICAL APPLICATIONS” (Davos Life Science Pte Ltd, priority 2010, published 2013)",
  "type_in_all_cases": "cell-based, mouse",
  "key": {"[1]": {"system": "B16 cells", "test": "Melanin content of pre-treated B16 cells after UV exposure", "settings": "10 minutes UV exposure (short and long wave UV)", "quoted_text": "The UVB source for cell irradiation was provided using a UVP UVM-57 handheld UV lamp (UVP Inc, Upland, Calif., USA).\nHarvested cell pellets were dissolved in 1 ml of 1N sodium hydroxide before incubation at 80° C. The melanin content was then immediately measured at 420 nm. The absorbance percentage values of the treated groups in comparison to untreated controls were calculated against per μg of the determined total protein content."}, "[2]": {"system": "B16 melanoma cells", "test": "MTT cell viability assay", "settings": "24 hrs of treatment, increasing dosages", "procedure": "B16 mouse melanoma cells were purchased from (ATCC, Manassas, Va., USA).\nThe base medium for the cell line was Dulbecco's modified Eagle's medium (DMEM). To make the complete growth medium, fetal bovine serum (final concentration, 10%) was added to the base medium. Tocotrienol (T3) and tocopherol (TP) isomers and the palm tocotrienol-rich fraction (TRF) were purified from a palm fatty acid distillate (PFAD) using molecular distillation and Novasep® equipment (Novasep, Pompey, France). The extraction facility is located in Tuas, Singapore. The PFAD feed was purchased from Kuala Lumpur Kepong Berhad (Kuala Lumpur, Malaysia). The purity of the vitamin E isomers was verified by HPLC and gas chromatography (GC) percentage peak area.\nFor the cell viability study, 5×10^3 cells re-suspended in 100 μl of medium were plated into each well of a 96-well plate. The cells were then treated with different concentrations of the vitamin-E isomers for 24 hrs. After the treatment, 20 μl of MTT solution (1 mg/ml in PBS; Sigma-Aldrich, St. Louis, Mo., USA) was added to each well and the cells were incubated at 37° C. for 2 hrs. The formazan crystals were then re-suspended in 200 μl of DMSO and the intensity at 595 nm was measured."}, "[3]": {"system": "tyrosinase mRNA", "test": "Reverse transcriptase PCR of tyrosinase mRNA", "settings": "B16 melanoma cells", "source_text": "Total RNA was isolated using Trizol reagent according to the manufacturer's protocol (Invitrogen, Carlsbad, Calif., USA). cDNA was synthesized using the SuperScript First Strand Synthesis System (Invitrogen, Carlsbad, Calif., USA) and was then amplified by PCR with tyrosinase-specific primers (forward primer, tyrosinase-S,5′-[…]-3′ [−2236/−2217] (SEQ ID NO: 1) and reverse primer, tyrosinase-AS,5′-[…]-3′ [+63/+42]) (SEQ ID NO: 2) and GAPDH specific primers: 5′ to 3′F […] (SEQ ID NO: 3); 5′ to 3′R […] (SEQ ID NO: 4). The PCR cycling protocol was as follows: 30 cycles for 10 min at 95° C., 30 sec at 95° C., 30 sec at 55° C., 1 min at 72° C., and 10 min at 72° C. Glyceraldehyde 3-phosphate dehydrogenase (GAPDH) was amplified as an internal control. The PCR products were electrophoresed on a 2% agarose gel and analyzed using a gel documentation system."}},
  "note": "“Also recorded” adds a separate entry of the source.",
  "data": [
    {"molecule": "CC(C)=CCC/C(C)=C/CC/C(C)=C/CCC1(C)CCc2cc(O)c(C)c(C)c2O1", "note": "(stereo not shown) [γ-tocotrienol, 7,8-dimethyltocotrienol]", "values": [
      {"measurement": "melanin content after UV exposure", "setting": "[1]", "result": "significantly suppressed the melanin content"},
      {"measurement": "B16 melanoma cell viability / proliferation rate", "setting": "[2]", "result": "inhibited the proliferation rate of B16 melanoma cells in a dose-dependent fashion; also recorded: inhibit B16 melanoma cell viability at high concentrations"},
      {"measurement": "tyrosinase mRNA", "setting": "[3]", "result": "No change of tyrosinase mRNA"},
      {"measurement": "tyrosinase mRNA", "setting": "[3]; listed as γ-T3", "result": "not affected"}
    ]}
  ]
}
